One compound from patent US12115153B2, “Methods of treating cancer” (Kartos Therapeutics, Inc., priority 2018, dated 2024) can be followed below.

The test system of one experiment is p21 mRNA. Kind of experiment: p21 mRNA in tumors harvested at the end of xenograft studies (qRT-PCR). The following applies: FIG. 6. It is filed as in vivo, female athymic nude mice. Here is the method: Tumor cells (SJSA-1: 5×10^6 cells, HCT 116: 2×10^6 cells) were injected subcutaneously into the flank of female athymic nude mice in a 2:1 ratio of cells to Matrigel (BD Bioscience). […] Tumors were harvested after 1, 2, 4, 8, and 24 hours after dose (SJSA-1) or 6 hours after dose (HCT116) and snap-frozen in liquid nitrogen. Total RNA was purified using Qiagen RNeasy 96 kit (Qiagen). The levels of p21 and the housekeeping gene GAPDH were assayed from total RNA from each sample in technical duplicates by qRTPCR. The qRT-PCR reactions were assayed on the Applied Biosystems Prism 7900HT instrument and the data were analyzed with Applied Biosystems SDS2.2 software. The SDS2.2 software calculated the p21 and GAPDH copy number in each of the tumor samples. The copy number of p21 was normalized to the copy number of the GAPDH, and the fold increase of normalized p21 levels were calculated relative to vehicle control for each sample. For MIC-1, plasma was collected at the time of sacrifice and MIC-1 was detected using R&D Quantikine Human MIC-1 Immunoassay (cat no. DGD150) following the manufacturer's instructions. The ELISA assay was read using a Spectramax M5 microplate reader using Softmax pro v4 (Molecular Devices). […]
On the technique in general: Real-time PCR tracks product formation cycle by cycle.

Experiment [1] deals with p53 wild type AML cell lines. Kind of experiment: Apoptosis in AML cell lines (FIG. 10). It is filed as cell-based.
The next experiment deals with cell cycle. Kind of experiment: Cell cycle (FIG. 9). The format is cell-based.
The subject of experiment [2] is p53 wild-type tumor cell lines. Kind of experiment: Cell viability assay (72 hours), panel of tumor cell lines. It is filed as cell-based. The text has this:
SJSA-1, HCT116, ACHN, NCI-H460, MOLM-13, RKO, MCF7, 22RV1, HT-29, PC-3, NCI-H82, NCI-SNU1, and MG-63 cells were purchased from the ATCC, and have since been authenticated by short tandem repeat analysis (PowerPlex 18D Kit from Promega). NCI-H2452, SW982, C32, SK-HEP-1, A375, RT4, RPMI-2650, MDA-MB-134-VI, NCI-H2347, and A427 cells were purchased from ATCC and used within 6 months. IGR-1 and CML-T1 cells were purchased from German Collection of Microorganisms and Cell Cultures (DSMZ) and used within 6 months. A375sq2 cells were generated by in vivo passaging A375 cells in mice. HCT116 p53^−/− cells were obtained from Bert Vogelstein. […]
CellTiter-Glo Luminescent Cell Viability (Promega) or ATPlite 1 step Luminescent (PerkinElmer) assay kits were used to determine the numbers of viable cells. Luminescence was measured with an EnVision Multilabel Reader (PerkinElmer) for each cell line at time zero (V0) before the addition of compounds, as well as after 72 hours of compound treatment. Growth inhibition (GI) was calculated on a 200-point scale according to the following equations, where V72 was luminescence of DMSO control at 72 hours and T72 was luminescence of the compound-treated sample: if T72>V0, then GI=100×(1−((T72−V0)/(V72−V0))); if T72<V0, then GI=100×(1−((T72−V0)/V0)). […]

A further experiment concerns A375sq2 (BRAF) tumor. Kind of experiment: A375sq2 xenograft study. It is filed as in vivo, female athymic nude mice. How it is done:
(§1) All animal experimental procedures were conducted in accordance with Association for Assessment and Accreditation of Laboratory Animal Care standards. All studies utilized 4- to 6-week-old female athymic nude mice (Harlan Laboratories, Hsd: Athymic Nude-Foxn1nu). The mice were housed five per filter-capped cage in sterile housing in an environmentally controlled room (temperature 23±2° C., relative humidity 50±20%) on a 12-hour light/dark cycle. The mice were fed commercial rodent chow (Harlan Laboratories, #2920X) and received filter-purified tap water ad libitum. The mice were individually identified by microchips (Bio Medic Data Systems) that were implanted subcutaneously at least 2 days before the study.
(§2) SJSA-1 cells (5×10^6 cells with Matrigel at a ratio of 2:1), NCI-H460 cells (5×10^6 cells with Matrigel at a ratio of 2:1), A375sq2 (5×10^6 cells with Matrigel at a ratio of 2:1), or HCT116 ([…]) were injected subcutaneously in the flank of female athymic nude mice (n=10/group). Treatment began when tumors were established and approximately 200 mm3. […] Tumor dimensions were assessed twice weekly with a Pro-Max electronic digital caliper (Sylvac) and tumor volume was calculated using the formula: length×width×height and expressed as mm3. Data are expressed as mean±SEM. Body weight was recorded twice weekly to assess tolerability (data not shown). […]

The test system of experiment [3] is tumor cell lines harboring wild-type p53. Kind of experiment: Xenograft models of different genetic backgrounds and tumor types (all models). Particulars: daily oral administration, FIGS. 3-5. It is filed as in vivo, female athymic nude mice. How it is done: as §1, §2
The test system of another experiment is AML tumor. Kind of experiment: AML tumor growth (FIG. 7, FIG. 8). It is filed as in vivo, mouse.
For the next experiment, the system named is HCT116 (KRAS) tumor. Kind of experiment: HCT116 xenograft study. The format is in vivo, female athymic nude mice. Here is the method: as §1
SJSA-1 cells (5×10^6 cells with Matrigel at a ratio of 2:1), NCI-H460 cells (5×10^6 cells with Matrigel at a ratio of 2:1), A375sq2 (5×10^6 cells with Matrigel at a ratio of 2:1), or HCT116 ([…]) were injected subcutaneously in the flank of female athymic nude mice (n=10/group). Treatment began when tumors were established and approximately 200 mm3. The compound of Formula (I) was administered once per day by oral gavage. Tumor dimensions were assessed twice weekly with a Pro-Max electronic digital caliper (Sylvac) and tumor volume was calculated using the formula: length×width×height and expressed as mm3. Data are expressed as mean±SEM. Body weight was recorded twice weekly to assess tolerability (data not shown). Analysis of p21 mRNA at the end of the xenograft studies was performed as described for the p21 pharmacodynamic assay.

Experiment [4] has as its system SJSA-1 (MDM2 amplified) tumor. Kind of experiment: SJSA-1 xenograft study. The format is in vivo, female athymic nude mice. Here is the method: as §1
Treatment began when tumors were established and approximately 200 mm3. […] Tumor dimensions were assessed twice weekly with a Pro-Max electronic digital caliper (Sylvac) and tumor volume was calculated using the formula: length×width×height and expressed as mm3. Data are expressed as mean±SEM. […] Analysis of p21 mRNA at the end of the xenograft studies was performed as described for the p21 pharmacodynamic assay.

Structures are written as SMILES.

As to `CC(C)[C@@H](CS(=O)(=O)C(C)C)N1C(=O)[C@@](C)(CC(=O)O)C[C@H](c2cccc(Cl)c2)[C@H]1c1ccc(Cl)cc1` [compound of Formula (I), 2-((3R,5R,6S)-5-(3-chlorophenyl)-6-(4-chlorophenyl)-1-((S)-1-(isopropylsulfonyl)-3-methylbutan-2-yl)-3-methyl-2-oxopiperidin-3-yl) acetic acid], the “induction of p21 mRNA compared with vehicle-treated tumors” value in the experiment with p21 mRNA was “dose- and time-dependent induction of p21 mRNA”. Besides, in experiment [1], the apoptosis result is “induces apoptosis”. The “effect on cell cycle” value in the experiment with cell cycle is “inhibits the cell cycle”. For the same compound, the concentration for half-maximal inhibition (IC50) – broadly, the concentration at which inhibition is half-maximal – in experiment [2] (23 p53 wild-type cell lines, 72-hour period, read-out: IC50, inhibition of cell growth) lay in the range of 100 to 1000 nM. For the same compound, in [2] (FIG. 2), the “proliferation of p53 WT tumor cells” value is recorded as “inhibits the proliferation of p53 WT tumor cells”. Besides, the ED50 (usually the midpoint of the dose-response relation) was determined as 18 mg/kg with A375sq2 (BRAF) tumor (Mus musculus, A375-SQ2, once per day by oral gavage, read-out: ED50, in vivo tumor growth); 31.6 mg/kg in the experiment with HCT116 (KRAS) tumor (Mus musculus, HCT-116, po, once per day by oral gavage, read-out: ED50, in vivo tumor growth); 9 mg/kg in [4] (Mus musculus, SJSA-1, po, once per day by oral gavage, read-out: ED50, in vivo tumor growth). Besides, in the experiment with A375sq2 (BRAF) tumor (mouse, in vivo), the tumour growth inhibition (TGI) – broadly, the reduction of tumour growth relative to the control group – is 97%. The “tumor growth inhibition (TGI) across all models” value in experiment [3] is reported as “significant tumor growth inhibition”. For the same compound, the AML tumor growth entry in the experiment with AML tumor is “inhibits AML tumor growth in a mouse model in a dose dependent manner”. The “TGI compared with control” value with HCT116 (KRAS) tumor (highest dose) is listed as 86%. In the experiment on HCT116 (KRAS) tumor (once per day by oral gavage), the “ED50, in vivo tumor growth” value was 31 mg/kg. In addition, the “tumor regrowth after treatment stopped” value in [4] (75 mg/kg group, treatment stopped after day 25, observed additional 50 days) is “no detectable SJSA-1 tumor regrowth”. The “tumors completely regressed and undetectable” value in experiment [4] (highest dose group of 75 mg/kg, after 10 days of treatment) was 10 of 10.
